Test results as given in patent publication US20210267886A1, “Gel-In-Oil Emulsion and Transdermally Absorbed Agent” (Nippon Shokubai Co., Ltd., priority 2018, published 2021).

Tested on: L929 cell-embedded collagen gel (cultured dermis model)
Assay: Titer evaluation using cultured dermis model (quantification of DNA)
Assay type: cell-based
Procedure: Ultrapure water was added to a collagen made of pig skin (manufactured by NH Foods Ltd.), and the obtained mixture was stirred overnight at 4° C. to prepare a 1% collagen solution. A L929 cell suspension (obtained by collecting cultured L929 cells and suspending the collected L929 cells in a culture medium) (6×10^5 cells) was centrifuged at 1000 rpm for 3 minutes, and the supernatant was removed by suction. A 20% fetal bovine serum (Fetal Bovine Serum, manufactured by FBS bio sera) was added to a Dulbecco's Modified Eagle Medium (DMEM) (manufactured by Thermo Fisher Scientific Inc.) prepared at a concentration of twice to prepare a 2-fold concentrated DMEM culture medium. L929 cells were suspended in a solution in which the 1% collagen solution and the 2-fold concentrated DMEM culture medium were mixed at a ratio of 1:1. This suspension was added to a 12-well plate at 1 ml/well, and was left to stand in an incubator for 1 hour to allow the suspension to turn into a gel.
A ring made of polycarbonate (outer diameter: 1.4 cm, inner diameter: 1.2 cm, and height: 0.3 cm) was placed on a L929 cell-embedded collagen gel (cultured dermis model) prepared in Synthesis Example 1. 200 μl of the bFGF-containing G/O emulsion described above was added to the inside the ring. 200 μl of DMEM culture medium was added to the outside of the ring, and the gel was placed in an incubator. The culture medium was changed every day, and the amounts of DNA in the L929 cell-embedded collagen gel after 1 day, 3 days, and 5 days were quantified. The quantification of DNA was performed as follows.
A liquid in which 1 ml of 0.25% collagenase solution (manufactured by Wako Pure Chemical Industries, Ltd.) was added to a L929 cell-embedded collagen gel was referred to as liquid E. A liquid in which a gel was dissolved by shaking the gel at 37° C. for around 1 hour was referred to as liquid F. Each sample was centrifuged at 1000 rpm for 3 minutes, and the supernatant was removed by suction. Triton X-100 (manufactured by Sigma) was added to the above-described PBS to prepare 0.1% Triton X-100-containing PBS, and the sample was suspended in 1 ml of the 0.1% Triton X-100-containing PBS. The obtained suspension was frozen at −80° C., and then thawed at room temperature. This operation was repeated 3 times. 180 μl of Hoechst (Hoechst (registered trademark), manufactured by Thermo Fisher Scientific K.K.) was mixed with 20 μl of sample, and the obtained mixture was added in a 96-well black plate. By using Fluorescent DNA Quantitation Kit Cat. #170-2480 (BIO-RAD), the quantification of DNA was performed with fluorescent brightness measurement under the conditions of an excitation filter of 355 nm and an absorption filter of 460 nm. The fluorescent brightness was measured 3 times, and the average was taken to obtain the amount of DNA. The quantification of DNA was performed before the start of the test (0 day), and 1 day, 3 days, 5 days, and 7 days after the start of the test.

For “Comparative Example 3: bFGF (basic fibroblast growth factor) used as it was”, the “Amount of DNA” value (0 Day (before the start of the test)) was 43 ng, the “Amount of DNA” value (After 1 day, 200 μl sample) was 74 ng and the “Amount of DNA” value (After 3 days, 200 μl sample) was 145 ng. The “Amount of DNA” value (After 5 days, 200 μl sample) was 187 ng and the “Amount of DNA” value (After 7 days, 200 μl sample) was 192 ng.
